Measured values published in ChEMBL document CHEMBL1201862, “PubChem BioAssay data set” (2004).
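Where inhibition never reached the appropriate level, the endpoint shown equals the highest concentration tested. Otherwise, values were interpolated linearly from a five-concentration, 48-hour dose response in 96-well plates. Abbreviation: GI50, concentration required for 50% inhibition of growth.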 Active and inactive are the calls of the source. Rule as the data show it: active = GI50 up to about 1.1 µM and inactive = higher. Where a SMILES comes first, the peptide text is derived from it. The star is where a group is joined. Fmoc = O=C(OCC1c2ccccc2-c2ccccc21)*; OBn = c1ccc(CO*)cc1; tBu = CC(C)(C)*

Key:
Experiment in all cases: growth of human tumour cells (NCI), 48 h
ACHN = tested on: ACHN
CAKI-1 = tested on: CAKI-1
DMS-114 = tested on: DMS-114
HCT-116 = tested on: HCT-116
HL-60 = tested on: HL-60
K562 = tested on: K562
LOX IMVI = tested on: LOX IMVI
MOLT-4 = tested on: MOLT-4
OVCAR-3 = tested on: OVCAR-3
SF-268 = tested on: SF-268
SF-539 = tested on: SF-539
SK-OV-3 = tested on: SK-OV-3
SNB-19 = tested on: SNB-19
SW-620 = tested on: SW-620
TK-10 = tested on: TK-10
U-251 = tested on: U-251
Hs-578T = tested on: Hs-578T
MDA-N = tested on: MDA-N
SK-MEL-5 = tested on: SK-MEL-5
SR = tested on: SR

Row | SMILES | GI50 (ACHN) | GI50 (CAKI-1) | GI50 (DMS-114) | GI50 (HCT-116) | GI50 (HL-60) | GI50 (K562) | GI50 (LOX IMVI) | GI50 (MOLT-4) | GI50 (OVCAR-3) | GI50 (SF-268) | GI50 (SF-539) | GI50 (SK-OV-3) | GI50 (SNB-19) | GI50 (SW-620) | GI50 (TK-10) | GI50 (U-251) | GI50 (Hs-578T) | GI50 (MDA-N) | GI50 (SK-MEL-5) | GI50 (SR)
1 | CCOC(=O)C12CCCC1(O)N(NC(=O)OC)C(C)=C2C(=O)OC (centres undefined) | > 100 µM (inactive) | > 100 µM (inactive) | > 100 µM (inactive) | > 100 µM (inactive) | > 100 µM (inactive) | > 100 µM (inactive) | > 100 µM (inactive) | > 100 µM (inactive) | > 10 µM (inactive) | > 100 µM (inactive) | > 100 µM (inactive) | > 100 µM (inactive) | > 100 µM (inactive) | > 100 µM (inactive) | > 100 µM (inactive) | > 100 µM (inactive) | – | – | – | –
2 | O=C1Nc2ccccc2/C1=N/NC(=O)c1ccccc1O | 21.8 µM (inactive) | – | 43.4 µM (inactive) | 36.8 µM (inactive) | 27.7 µM (inactive) | 40.9 µM (inactive) | 48.4 µM (inactive) | 29 µM (inactive) | 85.3 µM (inactive) | 44.4 µM (inactive) | 41.4 µM (inactive) | 12.1 µM (inactive) | 62.2 µM (inactive) | 46.8 µM (inactive) | 65.9 µM (inactive) | 23.2 µM (inactive) | – | – | – | –
3 | CC(OC(C)(C)C)C(NC(=O)OCC1c2ccccc2-c2ccccc21)C(=O)NC(Cc1ccccc1)C(=O)OCc1ccccc1 (centres undefined) (Fmoc-Thr(tBu)-Phe-OBn; configuration not given here) | > 100 µM (inactive) | > 100 µM (inactive) | – | > 100 µM (inactive) | > 100 µM (inactive) | > 100 µM (inactive) | > 100 µM (inactive) | > 61.9 µM (inactive) | > 100 µM (inactive) | > 100 µM (inactive) | > 100 µM (inactive) | > 100 µM (inactive) | > 100 µM (inactive) | > 100 µM (inactive) | > 100 µM (inactive) | > 100 µM (inactive) | > 100 µM (inactive) | > 100 µM (inactive) | > 100 µM (inactive) | > 87.9 µM (inactive)
4 | COc1cccc(C2c3cc4c(cc3OC(Nc3ccccc3)C2C)OCO4)c1OC (centres undefined) | 3.94 µM (inactive) | 3.87 µM (inactive) | – | 3.52 µM (inactive) | 2.1 µM (inactive) | 2.64 µM (inactive) | 3.77 µM (inactive) | 1.81 µM (inactive) | 5.36 µM (inactive) | 8.73 µM (inactive) | 13.2 µM (inactive) | 7.59 µM (inactive) | > 100 µM (inactive) | 7.85 µM (inactive) | 6.46 µM (inactive) | 5.94 µM (inactive) | 3.08 µM (inactive) | 34.8 µM (inactive) | 6.5 µM (inactive) | 0.809 µM (active)
5 | NS(=O)(=O)c1cc(C(=O)O)c(O)c2ccccc12 | > 100 µM (inactive) | > 100 µM (inactive) | – | > 100 µM (inactive) | > 100 µM (inactive) | > 100 µM (inactive) | > 100 µM (inactive) | > 100 µM (inactive) | > 100 µM (inactive) | > 100 µM (inactive) | > 100 µM (inactive) | > 100 µM (inactive) | > 100 µM (inactive) | > 100 µM (inactive) | > 100 µM (inactive) | > 100 µM (inactive) | 49.7 µM (inactive) | > 100 µM (inactive) | > 100 µM (inactive) | > 100 µM (inactive)
6 | Cc1cc2cc3cc(C)c(N)cc3nc2cc1N [ACRIDINE YELLOW] | 0.365 µM (active) | 0.791 µM (active) | – | 0.208 µM (active) | 0.789 µM (active) | 0.687 µM (active) | 0.478 µM (active) | 0.237 µM (active) | 0.522 µM (active) | 0.593 µM (active) | 1.01 µM (active) | 1.34 µM (inactive) | 0.716 µM (active) | 0.321 µM (active) | 0.635 µM (active) | 0.863 µM (active) | 1.75 µM (inactive) | 1.57 µM (inactive) | 2.27 µM (inactive) | 0.209 µM (active)
7 | CCOC(=O)NC(=O)c1cn(CCCO)c(=O)[nH]c1=O | > 100 µM (inactive) | > 100 µM (inactive) | > 100 µM (inactive) | > 100 µM (inactive) | – | > 100 µM (inactive) | > 100 µM (inactive) | > 100 µM (inactive) | > 100 µM (inactive) | > 100 µM (inactive) | > 100 µM (inactive) | > 100 µM (inactive) | > 100 µM (inactive) | > 100 µM (inactive) | > 100 µM (inactive) | > 100 µM (inactive) | – | – | > 100 µM (inactive) | –
8 | Cc1ccc(/N=N\c2c(O)c(S(=O)(=O)O)cc3cc(S(=O)(=O)O)ccc23)c(C)c1 | > 100 µM (inactive) | > 100 µM (inactive) | – | > 100 µM (inactive) | > 100 µM (inactive) | > 100 µM (inactive) | > 100 µM (inactive) | > 100 µM (inactive) | > 100 µM (inactive) | > 100 µM (inactive) | > 100 µM (inactive) | > 100 µM (inactive) | > 100 µM (inactive) | > 100 µM (inactive) | > 100 µM (inactive) | > 100 µM (inactive) | > 100 µM (inactive) | > 100 µM (inactive) | > 100 µM (inactive) | > 100 µM (inactive)
9 | NS(=O)(=O)c1ccc(NNC(=O)c2cccc3c(=O)c4ccccc4[nH]c23)cc1 | 91.6 µM (inactive) | > 100 µM (inactive) | – | 52.1 µM (inactive) | 35 µM (inactive) | 41.7 µM (inactive) | 30.1 µM (inactive) | 42.2 µM (inactive) | 56.9 µM (inactive) | 71.8 µM (inactive) | > 100 µM (inactive) | > 100 µM (inactive) | > 100 µM (inactive) | 72.6 µM (inactive) | > 100 µM (inactive) | 55.1 µM (inactive) | 72.8 µM (inactive) | > 100 µM (inactive) | 34 µM (inactive) | 49.8 µM (inactive)
10 | CC(C)C1COC(c2ccc3ccccc3c2-c2c(O[Si](C)(C)C(C)(C)C)ccc3ccccc23)=N1 (centres undefined) | 18.9 µM (inactive) | 21.9 µM (inactive) | 15.6 µM (inactive) | – | 16.1 µM (inactive) | 16.6 µM (inactive) | 19.7 µM (inactive) | 15.6 µM (inactive) | 17.3 µM (inactive) | 17.9 µM (inactive) | 16.9 µM (inactive) | 19.8 µM (inactive) | 14.9 µM (inactive) | 18.5 µM (inactive) | 17.9 µM (inactive) | – | – | – | 16.7 µM (inactive) | –
11 | CCc1cc2c(c3[nH]ccc13)[C@@H](C)C[C@H]2C | 16.7 µM (inactive) | 15.8 µM (inactive) | 19.9 µM (inactive) | 16 µM (inactive) | 21.8 µM (inactive) | 21.6 µM (inactive) | 12.7 µM (inactive) | 14.3 µM (inactive) | 20 µM (inactive) | – | > 10 µM (inactive) | 30.5 µM (inactive) | – | 19.8 µM (inactive) | 19.5 µM (inactive) | 16.4 µM (inactive) | – | – | 16.9 µM (inactive) | –
12 | COC1=C(OC)C(=O)C(Cc2c(Cl)nc3n2CCS3)=C(C)C1=O | 14.8 µM (inactive) | 16.6 µM (inactive) | – | 11.7 µM (inactive) | 2.3 µM (inactive) | 15.5 µM (inactive) | 6.35 µM (inactive) | 1.36 µM (inactive) | 16.7 µM (inactive) | 17.6 µM (inactive) | 14.6 µM (inactive) | 12.6 µM (inactive) | 16.2 µM (inactive) | 18 µM (inactive) | 15.6 µM (inactive) | 17.5 µM (inactive) | 19.8 µM (inactive) | 13.9 µM (inactive) | 11.7 µM (inactive) | 7.59 µM (inactive)
13 | O=c1c2cc(Br)cc(Br)c2[nH]c(=S)n1-c1ccccc1 | > 100 µM (inactive) | 54.5 µM (inactive) | 56.2 µM (inactive) | 48.8 µM (inactive) | – | 32.4 µM (inactive) | 75.2 µM (inactive) | – | 60.1 µM (inactive) | 52.4 µM (inactive) | 83 µM (inactive) | > 100 µM (inactive) | 60.8 µM (inactive) | 71.4 µM (inactive) | 78.3 µM (inactive) | 85.5 µM (inactive) | – | – | 54.8 µM (inactive) | –
14 | CSc1nc(NC2OCC(OC(C)=O)C(OC(C)=O)C2OC(C)=O)c2c(OC(C)=O)c(C)c(=O)oc2n1 (centres undefined) | > 100 µM (inactive) | > 100 µM (inactive) | > 100 µM (inactive) | > 100 µM (inactive) | > 100 µM (inactive) | > 100 µM (inactive) | > 100 µM (inactive) | > 100 µM (inactive) | > 100 µM (inactive) | – | > 100 µM (inactive) | > 100 µM (inactive) | > 100 µM (inactive) | > 100 µM (inactive) | > 100 µM (inactive) | > 100 µM (inactive) | – | – | > 100 µM (inactive) | –
15 | CC(C)c1nc(Cl)nc(Cl)c1Cl | 0.264 µM (active) | < 0.01 µM (active) | – | 0.0344 µM (active) | 0.0125 µM (active) | < 0.01 µM (active) | < 0.0365 µM (active) | 0.0284 µM (active) | 0.142 µM (active) | 1.16 µM (inactive) | 0.515 µM (active) | 4.58 µM (inactive) | 0.847 µM (active) | < 0.0233 µM (active) | 0.468 µM (active) | 0.61 µM (active) | 0.302 µM (active) | 0.679 µM (active) | 0.861 µM (active) | < 0.01 µM (active)
16 | O=C(c1ccc(-c2ccccc2)cc1)N(Cc1cccnc1)C(=S)N(Cc1cccnc1)C(=O)c1ccc(-c2ccccc2)cc1 | > 100 µM (inactive) | 27.1 µM (inactive) | – | 63.8 µM (inactive) | 24.5 µM (inactive) | 0.394 µM (active) | > 100 µM (inactive) | 0.198 µM (active) | > 100 µM (inactive) | > 100 µM (inactive) | > 100 µM (inactive) | > 100 µM (inactive) | > 100 µM (inactive) | > 100 µM (inactive) | > 100 µM (inactive) | > 100 µM (inactive) | > 100 µM (inactive) | 43.5 µM (inactive) | 56 µM (inactive) | 0.241 µM (active)
